Test results from patent publication US20240251802A1, “USE OF SATIVENE, AND RECOMBINANT BIOCONTROL FUNGUS AND MUSCARDINE CADAVER AND USE THEREOF” (priority 2022, published 2024).
Entries after “also recorded” stand apart in the source; their conditions may differ.

Experiments:
Type in all cases: in vivo
[1] = system: Aedes albopictus adults; test: Two-way choice method, attraction of adult mosquitoes; conditions: for content with the strongest attraction on mosquitoes: content gradients 10^−5 g to 10^−9 g on cotton balls vs n-hexane control, FIG. 2C/2D
Description: The detection on attraction of muscardine cadavers to mosquito (Aedes albopictus) adults was conducted according to a relevant literature (Robinson Ailic, Busula Annette O, Voets Mirjam A, Beshir Khalid B, Caulfield John C. Powers Stephen J, Verhulst Niels O, Winskill Peter, Muwanguzi Julian, Birkett Michael A, Smallegange Renate C, Masiga Daniel K, Mukabana W Richard, Sauerwein Robert W, Sutherland Colin J, Bousema Teun, Pickett John A, Takken Willem, Logan James G, de Boer Jetske G. Plasmodium-associated changes in human odor attract mosquitoes. Proc Natl Acad Sci USA 2018; 115: 4215), and the device used was shown in FIG. 1D. One of freeze-killed Galleria mellonella larvae (control) and one of the resulting Galleria mellonella muscardine cadaver were placed in a 3.5 cm ampoule, and placed in cylinders on both sides of the device. 10 female mosquitoes without blood meal 3 d to 5 d after eclosion were placed in the middle of a tube 1. Openings at both ends of the tube 1 were covered with gauze, and the tube was placed in a refrigerator at 4° C. for 3 min to reduce mosquito activities. Then the tube 1 was connected to tubes 2 and 3. The whole device was placed in a dark incubator at 26° C., and the selection of mosquitoes was recorded after 10 h. A Response index was calculated [the Response index=the number of mosquitoes selecting Galleria mellonella muscardine cadavers−the number of mosquitoes selecting freeze-killed Galleria mellonella larvae)/the total number of mosquitoes].
The muscardine cadaver was replaced by circular filter paper with a 5 mm diameter (containing 10 μl of different concentrations solutions of longifolene or sativene), and a control was a filter paper containing 10 μl of n-hexane solvent. Similarly, the method for detecting the attraction of muscardine cadavers to Galleria mellonella larvae and mosquitoes adults was also used to analyze the attraction of longifolene and sativene to these two kinds of insects. In the Galleria mellonella attractive device, the muscardine cadaver was replaced by cotton balls with about 2 cm diameter (containing 100 μl different concentrations solutions of longifolene or sativene), and a control was cotton balls containing 100 μl of n-hexane solvent. […]
(§1) According to the above device, the attraction of transgenic strain Mr-Tps and WT strain grown on PDA and on fermentation medium to mosquitoes was compared. The mycelia of transgenic strain Mr-Tps and WT strain grown on PDA and on fermentation medium for 14 d and with a fresh weight of 0.3 g were placed on both sides of the device, respectively, and a preference percentage was calculated after a period of treatment, where the preference percentage=the number of insects selecting mycelia of transgenic strain and WT strain/the total number of insects.

[2] = system: Drosophila larvae; test: Two-way choice method, attraction of Drosophila larvae; conditions: FIG. 2A/2B; for concentration dependence of attraction on Drosophila larvae: content gradients 10^−5 g to 10^−11 g
Description: Two-way choice method was used to detect the attraction of Galleria mellonella muscardine cadavers to Drosophila healthy larvae, with the device shown in FIG. 1A. New freezing-killed Galleria mellonella larvae were kept at a room temperature for 20 min(control) and one of the resulting Galleria mellonella muscardine cadaver was placed on both sides of a 9 cm petri dish (containing 2% water agar), and then 20 healthy 3-instar Canton-S Drosophila larvae were placed in the middle part of the petri dish. After 10 min, photographing was conducted to record the selection of Drosophila larvae, and a Response index was calculated [the Response index=(the number of Drosophila larvae selecting Galleria mellonella muscardine cadaver−the number of Drosophila larvae selecting control Galleria mellonella larvae)/the total number of Drosophila larvae (20)]. The experiment was repeated 6 times.
(§2) The muscardine cadaver was replaced by circular filter paper with a 5 mm diameter (containing 10 μl of different concentrations solutions of longifolene or sativene), and a control was a filter paper containing 10 μl of n-hexane solvent. Similarly, the method for detecting the attraction of muscardine cadavers to Galleria mellonella larvae and mosquitoes adults was also used to analyze the attraction of longifolene and sativene to these two kinds of insects. […]
as §1

[3] = system: Galleria mellonella larvae; test: Improved Two-way choice method, attraction of Galleria mellonella larvae; conditions: cotton balls with 100 μl solution vs n-hexane control, FIG. 3
Excerpt: An improved Two-way choice method was used to detect the attraction of Galleria mellonella muscardine cadavers to Galleria mellonella healthy larvae, with the device shown in FIG. 1B. Three freeze-killed Galleria mellonella larvae (control) and three the resulting Galleria mellonella muscardine cadavers were placed in 9 cm petri dishes, and the petri dishes were placed diagonally in the device; 40 healthy Galleria mellonella larvae were released at the center point of the device, and placed at room temperature in dark. The selection of healthy Galleria mellonella larvae was recorded after 1 h. A Response index was calculated [the Response index=the number of Galleria mellonella larvae selecting Galleria mellonella muscardine cadavers−the number of Galleria mellonella larvae selecting freeze-killed Galleria mellonella larvae)/the total number of Galleria mellonella larvae]. The experiment was repeated 6 times.
as §2

Row | Compound | response of mosquitoes at 10^−9 g ([1]; 10^−9 g, FIG. 2C) | content with the strongest attraction on mosquitoes [1] | concentration dependence of attraction on Drosophila larvae [2] | attraction of Galleria mellonella larvae [3] | concentration dependence of attraction on mosquitoes ([1]; content gradients 10^−5 g to 10^−9 g, FIG. 2D) | lowest level to which Drosophila larvae respond ([2]; content gradients 10^−5 g to 10^−11 g on filter paper vs n-hexane control)
1 | C=C1[C@H]2CC[C@@H]3[C@H]2C(C)(C)CCC[C@]13C [longifolene] | little response | 10^−6 g | a higher concentration of the longifolene and sativene had a stronger attraction | could also attract | – | –
2 | C=C1C2CCC3C2C(C(C)C)CCC13C (stereo not drawn) [sativene] | – | 10^−5 g | a higher concentration of the sativene has a stronger attracting effect; also recorded: a higher concentration of the longifolene and sativene had a stronger attraction | has insect attracting properties; also recorded: could also attract | a higher concentration of the sativene has a stronger attracting effect; also recorded: a higher concentration of the sativene had a stronger attraction | ≤ 10^−11 g
